Test results: patent publication US11891625B2, “Methods and compositions relating to hematopoietic stem cell expansion, enrichment, and maintenance” (CHILDREN'S MEDICAL CENTER CORPORATION, priority 2015, dated 2024)

Columns and labels:
[1] = tested on: murine HSCs (Lineage- Sca1+ ckit+ CD34-Flk2- CD150+ Fgd5 ZsGr+); assay: Ex vivo culture of 20 murine HSCs for 7 or 14 days (imaging, FACS of phenotypic HSCs); format: cell-based; details: 7 or 14 days ex vivo, versus DMSO
Description: Images taken at 4× magnification.
FIGS. 9A-9B show the expansion of phenotypic murine HSCs for 14 days ex vivo. 20 murine HSCs (Lineage− Sca1+ ckit+ CD34−Flk2−CD150+Fgd5⋅ZsGr+) were cultured in the presence of DMSO, LSD1 inhibitor IV (LS), Tgfbeta inhibitor RepSox (RS), and the combination of both (C2) for 14 days. This method supports maintenance and expansion of ZsGr+ HSCs. […] FIG. 9B depicts the number of Lineage− Sca1+ ckit+ CD34−Flk2−CD150+Fgd5⋅ZsGr+ HSCs in each condition after 14 days of ex vivo culture.
An optimal combination of compounds that can be used to expand, enrich, and maintain the hematopoietic stem cell functional potential of hematopoietic stem cells includes a histone demethylase inhibitor and an inhibitor of the TGFβ receptor Alk5. […] Images taken at 4× magnification. […] FIGS. 9A-9B show the expansion of phenotypic HSCs for 14 days ex vivo. 20 murine HSCs (LSK34-Flk2-150+ZsGr+) were cultured in the presence of DMSO, LSD1 inhibitor IV (LS), Tgfbeta inhibitor RepSox (RS), and the combination of both (C2) for 14 days. This method supports maintenance and expansion of ZsGr+ HSCs. […] FIG. 9B: Number of ZsGr+ HSCs in each condition after 14 days of ex vivo culture. […] A) Bright-field and ZsGr images of 20 HSCs cultured for 4.5 days ex vivo in the presence of LSD1 inhibitor IV (LS), Tgfbeta inhibitor RepSox (RS), and the combination of both (C2). […]

[2] = tested on: ZsGr+ murine HSCs; assay: 4.5 day ex vivo culture of 20 Fgd5 ZsGr+ HSCs (frequency and number of ZsGr+ cells); format: cell-based; details: 4.5 days ex vivo culture
Source text: FIG. 10A depicts bright-field and ZsGr images of 20 Fgd5⋅ZsGr+ HSCs cultured for 4.5 days ex vivo in the presence of LSD1 inhibitor IV (LS), Tgfbeta inhibitor RepSox (RS), and the combination of both (C2). […] FIG. 10C depicts the number of ZsGr+ and ZsGr− cells after 4.5 day cultures.
An optimal combination of compounds that can be used to expand, enrich, and maintain the hematopoietic stem cell functional potential of hematopoietic stem cells includes a histone demethylase inhibitor and an inhibitor of the TGFβ receptor Alk5. […] Images taken at 4× magnification. […] FIGS. 9A-9B show the expansion of phenotypic HSCs for 14 days ex vivo. 20 murine HSCs (LSK34-Flk2-150+ZsGr+) were cultured in the presence of DMSO, LSD1 inhibitor IV (LS), Tgfbeta inhibitor RepSox (RS), and the combination of both (C2) for 14 days. This method supports maintenance and expansion of ZsGr+ HSCs. […] FIG. 9B: Number of ZsGr+ HSCs in each condition after 14 days of ex vivo culture. […] A) Bright-field and ZsGr images of 20 HSCs cultured for 4.5 days ex vivo in the presence of LSD1 inhibitor IV (LS), Tgfbeta inhibitor RepSox (RS), and the combination of both (C2). FIG. 10B: Frequency of ZsGr+ cells remaining following 4.5 days of ex vivo culture. FIG. 10C: Number of ZsGr+ (Green) and ZsGr− (Black) cells within 4.5 day cultures (See also FIGS. 11A-13F and 28A-32B).

[3] = tested on: human cord blood HSCs; assay: In vitro colony forming assay of human cord blood HSCs after 14 days of ex vivo culture; format: cell-based; details: 14 day cord blood HSC cultures
Description: FIG. 30A depicts colony counts and composition adjusted to represent the entire well following 14 days of ex vivo culture (Note: only a fraction of the well was added to methocult for colony formation). FIG. 30B depicts the frequency of myeloid colony types from 14 day cord blood HSC cultures.

[4] = tested on: murine HSCs (lineage-, ckit+, Sca1+, CD150+, CD48-, Fgd5ZsGr+); assay: Culture of 40 murine HSCs for 12 days with compound cocktail plus RG108 and/or UNC0638, flow cytometry; format: cell-based; details: cytokines plus cocktail incl. trichostatin A, plus either or both RG108 and UNC0638
Description: 40 murine HSCs (lineage−, ckit+, Sca1+, CD150+, CD48−, Fgd5ZsGr+) were cultured for 12 days in the presence of cytokines (SCF, TPO, and IL12) and a cocktail of compounds (Lithium chloride, nicotinamide, N-acetylcysteine, ascorbic acid, A83-01, and SB203580, trichostatin A) plus either or both DNA methyltransferase inhibitor (RG108) and G9a inhibitor (UNC0638). Flow cytometry plots of Fgd5+Lineage− cells from the indicated culture conditions are shown.
A series of experiments was conducted in order to determine the relative contribution of compounds that modulate particular pathways to the expansion of hematopoietic stem cells. FIGS. 21A-21B show the contribution of each compound/pathway in ability to maintain and expand phenotypic HSCs during ex vivo culture. […] 200 cord blood HSCs were cultured for 12 days in serum free media supplemented with cytokines (SCF, TPO, FLT3L, IL3) in the presence of the indicated chemical combinations (Tgfbeta inhibitor (A, A83-01), HDAC inhibitor (TSA, Trichostatin A), and LSD1 inhibitor (TC, Tranylcypromine)) or additionally supplemented with p38 inhibitor (p38i, SB203580) and analyzed by flow cytometry. FIG. 35A: Immunophenotype of the cells post-culturing, and FIG. 35B: quantification of immunophenotypic HSCs (Lineage− CD34+ CD45RA−CD38− CD90+CD49F+) cultured in the indicated conditions.

[5] = tested on: human mobilized peripheral blood CD34+ cells; assay: Culture of 3000 CD34+ enriched mobilized peripheral blood cells for 7 days with chemicals or combinations, flow cytometry; format: cell-based; details: combinations with A83-01, Tranylcypromine, SB203580
Description: 3000 CD34+ enriched mobilized peripheral blood cells were cultured for 7 days in serum free media supplemented with cytokines (SCF, TPO, FLT3L, IL3) in the presence of the indicated chemical combinations (Tgfbeta inhibitor (A, A83-01), pan-HDAC inhibitor (TSA, Trichostatin A), LSD1 inhibitor (TC, Tranylcypromine), p38 inhibitor (p38i, SB203580), HDAC1/2 inhibitor (Rom, Romidepsin)) and analyzed by flow cytometry. FIG. 41A depicts the immunophenotype of the cells, FIG. 41B depicts the percentage of indicated populations, and FIG. 41C depicts quantification of immunophenotypic HSCs (Lineage− CD34+ CD45RA−CD38− CD90+CD49F+) 7 days post-culturing in the indicated conditions.
3000 CD34+ enriched mobilized peripheral blood cells were cultured for 7 days in serum free media supplemented with cytokines (SCF, TPO, FLT3L, IL3) in the presence of the indicated chemical combinations (Tgfbeta inhibitor (A, A83-01), pan-HDAC inhibitor (TSA, Trichostatin A), LSD1 inhibitor (TC, Tranylcypromine), p38 inhibitor (p38i, SB203580), HDAC1/2 inhibitor (Rom, Romidepsin)) and analyzed by flow cytometry. FIG. 41A: immunophenotype of the cells, FIG. 41B: percentage of indicated populations, and FIG. 41C: quantification of immunophenotypic HSCs (Lineage− CD34+ CD45RA− CD38− CD90+CD49F+) 7 days post-culturing in the indicated conditions.

[6] = tested on: p38 MAPK; details: as described in U.S. Pat. No. 6,602,896; cited from earlier work
[7] = tested on: human CD34+ peripheral blood and cord blood hematopoietic stem cells; details: as described in the cited literature; cited from earlier work
[8] = tested on: murine HSCs (lineage-, ckit+, Sca1+, CD150+, CD48-, Fgd5ZsGr+); assay: Culture of 100 murine HSCs with compound cocktail plus VPA or TSA, day 7 flow cytometry; format: cell-based; details: cytokines plus cocktail (Lithium chloride, nicotinamide, N-acetylcysteine, ascorbic acid, A83-01, SB203580)
Description: 100 murine HSCs (lineage−, ckit+, Sca1+, CD150+, CD48−, Fgd5ZsGr+) were cultured in the presence of cytokines only (SCF, TPO, and IL12) in the absence of compounds (Standard), or additionally supplemented with a cocktail of compounds (Lithium chloride, nicotinamide, N-acetylcysteine, ascorbic acid, A83-01, and SB203580) plus either valproic acid (VPA) or trichostatin A (TSA), which are structurally distinct HDAC inhibitors. FIG. 22A depicts day 7 flow cytometric analysis and FIG. 22B depicts the proportion of Fgd5−ZsGreen+ Sca1+ cells for each replicate.
In addition to inhibitors of histone demethylation and TGFβ signaling, histone deacetylase inhibitors also promote the expansion, enrichment, and maintenance of hematopoietic stem cells ex vivo. […] 3000 CD34+ enriched mobilized peripheral blood cells were cultured for 7 days in serum free media supplemented with cytokines (SCF, TPO, FLT3L, IL3) in the presence of the indicated chemical combinations (Tgfbeta inhibitor (A, A83-01), pan-HDAC inhibitor (TSA, Trichostatin A), LSD1 inhibitor (TC, Tranylcypromine), p38 inhibitor (p38i, SB203580), HDAC1/2 inhibitor (Rom, Romidepsin)) and analyzed by flow cytometry. […]

In the case of `CN1CCN(C(=O)CN[C@@H]2C[C@H]2c2ccc(OCc3ccccc3)cc2)CC1` [LS], the “appearance of cultures (images at 4x magnification)” value [1] is reported as “more homogenous and less differentiated”, the “maintenance and expansion of ZsGr+ HSCs” value [2] is reported as “supports maintenance and expansion of ZsGr+ murine HSCs” and the “frequency of GEMM colonies” value [3] is reported as “elevated frequency of most primitive GEMM colonies”.
For `O=C(O)[C@H](Cc1c[nH]c2ccccc12)N1C(=O)c2ccccc2C1=O` [RG108, N-Phthalyl-L-tryptophan], the “heterogeneity of Fgd5 ZsGr+ cells with respect to CD48 and Sca1 expression” value [4] was “reduces heterogeneity”.
In the case of `Cc1cccc(-c2n[nH]cc2-c2ccc3ncccc3n2)n1` [RS], the “maintenance and expansion of ZsGr+ HSCs” value [2] is reported as “supports maintenance and expansion of ZsGr+ murine HSCs” and the “frequency of GEMM colonies” value [3] is reported as “elevated frequency of most primitive GEMM colonies”.
For `C/C=C1\NC(=O)[C@H]2CSSCC/C=C/[C@H](CC(=O)N[C@H](C(C)C)C(=O)N2)OC(=O)[C@H](C(C)C)NC1=O` [Romidepsin], the “replacement of pan HDAC inhibitor in chemical combination for maintenance/expansion of human HSCs” value [5] was “can replace the pan HDAC inhibitor Trichostatin A for efficient ex vivo maintenance/expansion of human HSCs”.
In the case of `Oc1ccc(-c2nc(-c3ccc(F)cc3)c(-c3ccncc3)[nH]2)cc1` [SB202190, 4(4-Fluorophenyl)-2-(4-hydroxyphenyl)-5-(4-pyridyl) 1H-imidazole], the “selectivity among p38 MAPK isoforms” value [6] is listed as “selectively antagonize p38 MAPK α- and β-isoforms without disrupting the enzymatic activity of the γ- or δ-isoforms”.
For `CC(C)n1cnc2c(NCCc3ccc(O)cc3)nc(-c3csc4ccccc34)nc21` [SR1], the “expansion and self-renewal of human CD34+ hematopoietic stem cells” value [7] is given as “promotes expansion and self-renewal of human CD34+ peripheral blood and cord blood hematopoietic stem cells”.
For `COc1cc2c(NC3CCN(C(C)C)CC3)nc(C3CCCCC3)nc2cc1OCCCN1CCCC1` [UNC0638], the “heterogeneity of Fgd5 ZsGr+ cells with respect to CD48 and Sca1 expression” value [4] was “reduces heterogeneity”.
In the case of `CC(/C=C/C(=O)NO)=C\[C@@H](C)C(=O)c1ccc(N(C)C)cc1` [trichostatin A], the “maintenance of immunophenotypic HSCs by structurally distinct HDAC inhibitors” value [8] is reported as “function equivalently to maintain immunophenotypic HSCs”.
In the case of `CCCC(CCC)C(=O)O` [valproic acid], the “maintenance of immunophenotypic HSCs by structurally distinct HDAC inhibitors” value [8] is reported as “function equivalently to maintain immunophenotypic HSCs”.
